How the values were obtained:
[1] = tested on: planktonic sulfate reducing bacteria (SRB); assay: Biocide test API RP 38, sulfate reducing bacteria; type: cell-based; details: 4 hours contact at 37° C., growth monitored 15 days
Procedure: (§1) The effectiveness of the polymeric quaternary ammonium salts as a biocide was tested using the method shown in the API Recommended Practice for Biological Analysis of Subsurface Injection Waters, API RP 38, March, 1982, which is hereby fully incorporated by reference. The effectiveness of the salts as a biocide was tested using planktonic sulfate reducing bacteria (SRB), Aerobic Acid Producing Bacteria (AAPB) and Anaerobic Acid Producing (AnAP) Bacteria.
(§2) The desired concentrations of the polymeric quaternary ammonium salt biocide were added to clean sterilized bottles. Two bottles contained no biocides and served as controls. Under a N2 blanket, 10 mL of actively growing bacterial culture (24 hours old) was added to each of the bottles, and a 1 mL sample was taken and serially diluted into six bottles. The solutions were mixed well and the bottles were placed in an incubator at 37° C. for 4 hours. At the end of this period, 1 mL samples from each of the treated bottles were taken and serially diluted into 3 bottles. Samples from the control bottles were serially diluted into six bottles. All bottles were then placed in an incubator at 37° C. and bacterial growth was monitored for 15 days.

[2] = tested on: Aerobic Acid Producing Bacteria (AAPB); assay: Biocide test API RP 38, aerobic acid producing bacteria; type: cell-based; details: 4 hours contact at 37° C., growth monitored 15 days
Procedure: as §1, §2

[3] = tested on: Anaerobic Acid Producing (AnAP) Bacteria; assay: Biocide test API RP 38, anaerobic acid producing bacteria; type: cell-based; details: 4 hours contact at 37° C., growth monitored 15 days
Procedure: as §1, §2

[4] = Standard testing procedures for determining biodegradability
Excerpt: The present invention provides compositions comprising polymeric quaternary ammonium salts and methods of their use as a corrosion inhibitor and/or biocide. The polymeric quaternary ammonium salts described herein are highly biodegradable, thereby making these compositions highly desirable for use in corrosion systems that require careful consideration concerning environmental impact, such as on offshore drilling platforms. […] For purposes of comparison, sodium benzoate was about 85.5% biodegraded after 7 days, about 95% biodegraded after 14 days and 100% biodegraded after 28 days.

Question: What does the source list for `O=CCCCC=O` [Glutaraldehyde]?
Answer: Bacterial cells/ml, sulfate reducing bacteria ([1]; dosage 31.3 ppm): 10^1 cells/ml; Bacterial cells/ml, sulfate reducing bacteria ([1]; dosage 62.5 ppm): 0^ cells/ml; Bacterial cells/ml, Aerobic Acid Producing Bacteria (AAP) ([2]; dosage 100 ppm): ≧10^3 cells/ml; Bacterial cells/ml, Aerobic Acid Producing Bacteria (AAP) ([2]; dosage 200 ppm): ≧10^3 cells/ml; Bacterial cells/ml, Aerobic Acid Producing Bacteria (AAP) ([2]; dosage 375 ppm): 10^2 cells/ml; Bacterial cells/ml, Aerobic Acid Producing Bacteria (AAP) ([2]; dosage 500 ppm): 10^1 cells/ml; Bacterial cells/ml, Anaerobic Acid Producing (AnAP) Bacteria ([3]; dosage 31.3 ppm): 10^2 cells/ml; Bacterial cells/ml, Anaerobic Acid Producing (AnAP) Bacteria ([3]; dosage 62.5 ppm): ≧10^3 cells/ml; Bacterial cells/ml, Anaerobic Acid Producing (AnAP) Bacteria ([3]; dosage 125 ppm): ≧10^3 cells/ml

Question: Which results are given for `O=C([O-])c1ccccc1.[Na+]` [sodium benzoate]?
Answer: biodegraded ([4]; after 7 days): about 85.5%; biodegraded ([4]; after 14 days): about 95%; biodegraded ([4]; after 28 days): 100%
